Assay results from patent publication US11986471B2, “Compounds and methods of use” (Tango Therapeutics, Inc., priority 2018, dated 2024).

Key:
PRMT5 [1] = biological target: T1, PRMT5 (Homo sapiens, UniProt O14744); experiment: PRMT5 IC50 assay with no cofactor; format: biochemical; details: read-out: No Co-factor IC50
T1 construct: purchased Viva (custom protein)
How it was run: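 Enzyme: human PRMT5. Conditions: plus SAM, plus MTA, or cofactor-free. Output: IC50 (μM); Ki via IC50/1.5 (SAM) or IC50/13.5 (MTA).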

HAP1 MTAP-deleted = experiment: SDMA in-cell western assay, HAP1 MTAP-deleted cell line; format: cell-based; details: for IC50: Homo sapiens, HAP1 MTAP-deleted cell line; for MTAP Intact/Deleted Ratio: IC50 ratio HAP1 MTAP-intact / HAP1 MTAP-deleted
How it was run: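 MTAP-null HAP1 cells, the deleted member of an isogenic pair with endogenously MTAP-expressing HAP1, are treated with compound. SDMA is then quantified by in-cell western and an IC50 is calculated.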

PRMT5 [2] = biological target: T1, PRMT5; experiment: PRMT5 IC50 assay in the presence of MTA as cofactor; format: biochemical; details: for IC50: PRMT5, MTA as cofactor; for SAM/MTA Ratio: ratio between Ki in the presence of SAM and Ki in the presence of MTA
How it was run: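 IC50 against PRMT5 determined with SAM as cofactor, with no cofactor, and with MTA as cofactor. Ki derived as IC50/1.5 for the SAM assay and IC50/13.5 for the MTA assay; SAM Ki to MTA Ki ratio also reported.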

PRMT5 [3] = biological target: T1, PRMT5; experiment: PRMT5 IC50 assay in the presence of SAM as cofactor; format: biochemical
How it was run: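 Cofactor-free, SAM and MTA formats; IC50 μM; Ki = IC50/1.5 for SAM, IC50/13.5 for MTA.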

HAP1 MTAP-intact = experiment: SDMA in-cell western assay, HAP1 MTAP-intact cell line; format: cell-based; details: Homo sapiens
How it was run: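 Cells from two matched HAP1 lines, MTAP-null and MTAP-expressing at endogenous levels, are treated with compound. SDMA is then quantified by in-cell western and an IC50 is calculated for each line.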

T1 sequence (O14744 whole entry): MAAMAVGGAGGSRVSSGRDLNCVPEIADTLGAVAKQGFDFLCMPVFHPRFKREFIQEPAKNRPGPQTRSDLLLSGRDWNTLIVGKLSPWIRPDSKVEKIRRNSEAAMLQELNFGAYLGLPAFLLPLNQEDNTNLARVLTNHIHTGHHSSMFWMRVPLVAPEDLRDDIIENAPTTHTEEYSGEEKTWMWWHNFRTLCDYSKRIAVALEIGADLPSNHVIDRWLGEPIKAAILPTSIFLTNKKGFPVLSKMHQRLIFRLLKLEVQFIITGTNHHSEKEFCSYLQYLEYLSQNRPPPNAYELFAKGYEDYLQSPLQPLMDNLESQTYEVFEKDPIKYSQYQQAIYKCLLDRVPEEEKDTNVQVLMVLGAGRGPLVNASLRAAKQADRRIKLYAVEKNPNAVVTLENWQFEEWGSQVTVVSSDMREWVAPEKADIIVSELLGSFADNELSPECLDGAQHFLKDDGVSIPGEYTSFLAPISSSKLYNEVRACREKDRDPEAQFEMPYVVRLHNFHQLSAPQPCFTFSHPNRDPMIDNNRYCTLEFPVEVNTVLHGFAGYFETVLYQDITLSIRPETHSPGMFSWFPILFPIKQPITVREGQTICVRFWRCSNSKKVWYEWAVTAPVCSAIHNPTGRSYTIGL
T1 sequence (Q9BQA1 whole entry partner): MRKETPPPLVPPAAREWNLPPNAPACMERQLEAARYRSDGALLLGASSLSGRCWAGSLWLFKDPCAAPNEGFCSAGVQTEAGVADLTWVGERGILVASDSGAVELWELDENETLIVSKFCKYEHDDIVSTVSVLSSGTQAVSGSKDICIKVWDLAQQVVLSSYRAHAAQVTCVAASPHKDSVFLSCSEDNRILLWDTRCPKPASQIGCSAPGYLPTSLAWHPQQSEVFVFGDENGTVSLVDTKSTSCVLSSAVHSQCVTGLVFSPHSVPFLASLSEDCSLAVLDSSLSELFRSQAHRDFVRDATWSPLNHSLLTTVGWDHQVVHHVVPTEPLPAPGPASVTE

SMILES	IC50 (PRMT5 [1]) [µM]	IC50 (HAP1 MTAP-deleted) [nM]	MTAP Intact/Deleted Ratio (HAP1 MTAP-deleted)	IC50 (PRMT5 [2]) [nM]	SAM/MTA Ratio (PRMT5 [2])	IC50 (PRMT5 [3]) [nM]	IC50 (HAP1 MTAP-intact) [µM]
O=C(NC[C@H](O)CN1CCc2cc(OCc3cnco3)cc(F)c2C1)c1ccnc(NC2CCC2)c1 [Compound 362, 2-(cyclobutylamino)-N-[(2S)-3-[8-fluoro-6-(oxazol-5-ylmethoxy)-3,4-dihydro-1H-isoquinolin-2-yl]-2-hydroxy-propyl]pyridine-4-carboxamide]	≥ 5	1000 to 10000	C* (an IC50 ratio of less than 3 fold between the IC50 in the HAP1 MTAP-intact cell line and the HAP1 MTAP-deleted cell line)	50 to 500	A (a Ki ratio greater than or equal to 10 fold between the Ki in the presence of SAM and the Ki in the presence of MTA)	500 to 5000	< 1
O=C(NC[C@H](O)CN1CCc2cc(OCc3cnco3)c(F)c(F)c2C1)c1ccnc(NC2CCC2)c1 [Compound 364, 2-(cyclobutylamino)-N-[(2S)-3-[7,8-difluoro-6-(oxazol-5-ylmethoxy)-3,4-dihydro-1H-isoquinolin-2-yl]-2-hydroxy-propyl]pyridine-4-carboxamide]	≥ 5	1000 to 10000	C* (an IC50 ratio of less than 3 fold between the IC50 in the HAP1 MTAP-intact cell line and the HAP1 MTAP-deleted cell line)	50 to 500	A (a Ki ratio greater than or equal to 10 fold between the Ki in the presence of SAM and the Ki in the presence of MTA)	50 to 500	≥ 10
CC(=O)N1CC(Nc2cc(C(=O)NC[C@H](O)CN3CCc4cc(OCc5cnco5)ccc4C3)nc(N3CCCCC3)n2)C1 [Compound 365, (S)-6-((1-acetylazetidin-3-yl)amino)-N-(2-hydroxy-3-(6-(oxazol-5-ylmethoxy)-3A-dihydroisoquinolin-2(1H)-yl)propyl)-2-(piperidin-1-yl)pyrimidine-4-carboxamide]	0.5 to 5	< 1000	B* (an IC50 ratio greater than or equal to 3 fold but lower than 10 fold between the IC50 in the HAP1 MTAP-intact cell line and the HAP1 MTAP-deleted cell line)	< 50	A (a Ki ratio greater than or equal to 10 fold between the Ki in the presence of SAM and the Ki in the presence of MTA)	50 to 500	1 to 10
O=C(NC[C@H](O)CN1CCc2c(ccc(OCc3cnco3)c2Cl)C1)c1ccnc(NC2CCN(C(=O)C3CC3)CC2)c1 [Compound 366, (S)—N-(3-(5-chloro-6-(oxazol-5-ylmethoxy)-3N-dihydroisoquinolin-2(1H)-yl)-2-hydroxypropyl)-2-((1-(cyclopropanecarbonyl)piperidin-4-yl)amino)isonicotinamide]	0.5 to 5	1000 to 10000	B* (an IC50 ratio greater than or equal to 3 fold but lower than 10 fold between the IC50 in the HAP1 MTAP-intact cell line and the HAP1 MTAP-deleted cell line)	50 to 500	A (a Ki ratio greater than or equal to 10 fold between the Ki in the presence of SAM and the Ki in the presence of MTA)	50 to 500	≥ 10
Cc1ncoc1COc1ccc2c(c1C)CCN(C[C@@H](O)CNC(=O)c1cc(NC3CCCC3)ncn1)C2 [Compound 367, 6-(cyclopentylamino)-N-[(2S)-2-hydroxy-3-{5-methyl-6-[(4-methyl-1,3-oxazol-5-yl)methoxy]-1,2,3,4-tetrahydroisoquinolin-2-yl}propyl]pyrimidine-4-carboxamide]	≥ 5	≥ 10000	C* (an IC50 ratio of less than 3 fold between the IC50 in the HAP1 MTAP-intact cell line and the HAP1 MTAP-deleted cell line)	50 to 500	A (a Ki ratio greater than or equal to 10 fold between the Ki in the presence of SAM and the Ki in the presence of MTA)	500 to 5000	≥ 10
Cc1ncoc1COc1ccc2c(c1C)CCN(C[C@@H](O)CNC(=O)c1cc(NC3CCCCC3)ncn1)C2 [Compound 368, 6-(cyclohexylamino)-N-[(2S)-2-hydroxy-3-{5-methyl-6-[(4-methyl-1,3-oxazol-5-yl)methoxy]-1,2,3,4-tetrahydroisoquinolin-2-yl}propyl]pyrimidine-4-carboxamide]	≥ 5	≥ 10000	C* (an IC50 ratio of less than 3 fold between the IC50 in the HAP1 MTAP-intact cell line and the HAP1 MTAP-deleted cell line)	50 to 500	A (a Ki ratio greater than or equal to 10 fold between the Ki in the presence of SAM and the Ki in the presence of MTA)	500 to 5000	≥ 10
COCCN(C)c1cc(C(=O)NC[C@H](O)CN2CCc3cc(OCc4cnco4)ccc3C2)cc(NC2CCC2)n1 [Compound 369, (S)-2-(cyclobutylamino)-N-(2-hydroxy-3-(6-(oxazol-5-ylmethoxy)-3,4-dihydroisoquinolin-2(1H)-yl)propyl)-6-((2-methoxyethyl)(methyl)amino)isonicotinamide]	0.5 to 5	≥ 10000	C* (an IC50 ratio of less than 3 fold between the IC50 in the HAP1 MTAP-intact cell line and the HAP1 MTAP-deleted cell line)	50 to 500	A (a Ki ratio greater than or equal to 10 fold between the Ki in the presence of SAM and the Ki in the presence of MTA)	500 to 5000	1 to 10
CC(C)(C)N1CCN(c2nc(NC3COC3)cc(C(=O)NC[C@H](O)CN3CCc4c(ccc(OCc5cnco5)c4Cl)C3)n2)CC1 [Compound 370, (S)-2-(4-(tert-butyl)piperazin-1-yl)-N-(3-(5-chloro-6-(oxazol-5-ylmethoxy)-3N-dihydroisoquinolin-2(1H)-yl)-2-hydroxypropyl)-6-(oxetan-3-ylamino)pyrimidine-4-carboxamide]	≥ 5	1000 to 10000	C* (an IC50 ratio of less than 3 fold between the IC50 in the HAP1 MTAP-intact cell line and the HAP1 MTAP-deleted cell line)	50 to 500	A (a Ki ratio greater than or equal to 10 fold between the Ki in the presence of SAM and the Ki in the presence of MTA)	50 to 500	≥ 10
Cc1ncoc1COc1ccc2c(c1C)CCN(C[C@@H](O)CNC(=O)c1cc(NC3CCC3)ncn1)C2 [Compound 371, 6-(cyclobutylamino)-N-[(2S)-2-hydroxy-3-{5-methyl-6-[(4-methyl-1,3-oxazol-5-yl)methoxy]-1,2,3,4-tetrahydroisoquinolin-2-yl}propyl]pyrimidine-4-carboxamide]	≥ 5	< 1000	A* (an IC50 ratio greater than or equal to 10 fold between the IC50 in the HAP1 MTAP-intact cell line and the HAP1 MTAP-deleted cell line)	50 to 500	A (a Ki ratio greater than or equal to 10 fold between the Ki in the presence of SAM and the Ki in the presence of MTA)	500 to 5000	≥ 10
O=C(NC[C@H](O)CN1CCc2cc(OCc3cnco3)ccc2C1)c1cc(NC2CCCC2)ncn1 [Compound 372, (S)-6-(cyclopentylamino)-N-(2-hydroxy-3-(6-(oxazol-5-ylmethoxy)-3,4-dihydroisoquinolin-2(1H)-yl)propyl)pyrimidine-4-carboxamide]	≥ 5	< 1000	C* (an IC50 ratio of less than 3 fold between the IC50 in the HAP1 MTAP-intact cell line and the HAP1 MTAP-deleted cell line)	50 to 500	A (a Ki ratio greater than or equal to 10 fold between the Ki in the presence of SAM and the Ki in the presence of MTA)	500 to 5000	< 1
CC(C)(C)N1CCN(c2nc(NC3COC3)cc(C(=O)NC[C@H](O)CN3CCc4cc(OCc5cnco5)ccc4C3)n2)CC1 [Compound 373]	0.5 to 5	1000 to 10000	B* (an IC50 ratio greater than or equal to 3 fold but lower than 10 fold between the IC50 in the HAP1 MTAP-intact cell line and the HAP1 MTAP-deleted cell line)	50 to 500	A (a Ki ratio greater than or equal to 10 fold between the Ki in the presence of SAM and the Ki in the presence of MTA)	50 to 500	≥ 10
Cc1ncoc1COc1ccc2c(c1)CCN(C[C@@H](O)CNC(=O)c1cc(NC3CCC3)ncn1)C2 [Compound 374, 6-(cyclobutylamino)-N-[(2S)-2-hydroxy-3-{6-[(4-methyl-1,3-oxazol-5-yl)methoxy]-1,2,3,4-tetrahydroisoquinolin-2-yl}propyl]pyrimidine-4-carboxamide]	≥ 5	< 1000	C* (an IC50 ratio of less than 3 fold between the IC50 in the HAP1 MTAP-intact cell line and the HAP1 MTAP-deleted cell line)	50 to 500	A (a Ki ratio greater than or equal to 10 fold between the Ki in the presence of SAM and the Ki in the presence of MTA)	50 to 500	1 to 10
